The source of these data is US12263171B2, “7-, 8-, and 10-substituted amino triazolo quinazoline derivatives as adenosine receptor antagonists, pharmaceutical compositions and their use” (Merck Sharp & Dohme LLC, priority 2018, dated 2025).

The IC50 is the point on the concentration scale where inhibition reaches its midpoint. Low readings indicate greater potency in that assay, high ones weaker potency in that assay.

The target in assay [1] is human A2a adenosine receptor (Homo sapiens (Human), UniProt P29274). In words: A2a receptor affinity radioligand binding assay ([3H] SCH58261, membranes from HEK293 or CHO cells). Conditions: unstarred values: radioligand binding. On the procedure: The A2a receptor affinity binding assay measured the amount of binding of a tritiated ligand with high affinity for the A2a adenosine receptor to membranes made from HEK293 or CHO cells recombinantly expressing the human A2a adenosine receptor, in the presence of varying concentrations of a compound of the invention.
Measurement of A2a Binding Affinity Using Radioligand Binding
148 μL, (5 μg/mL) membranes (Perkin Elmer, Cat. No. RBHA2aM4001A) and 2 μL compounds of the invention to be tested (test compound) were transferred to individual wells of a 96-well polypropylene assay plate and incubated for 15 to 30 minutes at room temperature. [^3H] SCH58261 ((7-(2-phenylethyl)-5-amino-2-(2-furyl)-pyrazolo-[4,3-e]-1,2,4-triazolo[1,5-c]pyrimidine)) was diluted in assay buffer (50 mM Tris pH 7.4, 10 mM MgCl2, 0.005% Tween20) to a concentration of 4 nM and 50 μL transferred to each well of the assay plate. […] The assay plate was incubated at room temperature for 60 minutes with agitation. […] Filtering was achieved by aspirating the contents of the assay plate for 5 seconds, then washing and aspirating the contents three times with ice-cooled wash buffer (50 mM Tris-HCl pH 7.4, 150 mM NaCl) and allowing the vacuum manifold to dry the plate for 30 seconds. The filter plate was incubated for at least 1 hour at 55° C. and allowed to dry. The bottom of the filter plate was sealed with backing tape. 40 μL. […] The plate was incubated for at least 20 minutes, and then the amount of radioactivity remaining in each well was determined using a TopCown® (Perkin Elmer) scintillation counter. After normalization to total and non-specific binding, the percent effect at each compound concentration was calculated. The plot of percent effect versus the log of compound concentration was analyzed electronically using a 4-parameter logistic fit based on the Levenberg-Marquardt algorithm to generate IC50 values.

Assay [2] concerns the target human A2b adenosine receptor (Homo sapiens (Human), UniProt P29275). In words: A2b radioligand filtration binding assay (tritiated proprietary A2b antagonist, HEK293 membranes). Conditions: for IC50: unstarred values: radioligand binding. On the procedure:
Measurement of A2b Binding Affinity
The reported affinity of the compounds of the invention for the human A2b adenosine receptor was determined experimentally using a radioligand filtration binding assay. This assay measures the amount of binding of a tritiated proprietary A2b receptor antagonist, in the presence and absence of a compound of the invention, to membranes made from HEK293 cells recombinantly expressing the human A2b adenosine receptor (Perkin Elmer, Cat. No. ES-013-C).
The filter plate was incubated for at least 1 hour at 55° C. and allowed to dry. The bottom of the filter plate was then sealed with backing tape. […] The plates were then incubated for at least 20 minutes, and then the amount of radioactivity remaining in each well was determined using a TopCount® (Perkin Elmer) scintillation counter. After normalization to total and non-specific binding, the percent effect at each compound concentration was calculated. The plot of percent effect versus the log of compound concentration was analyzed electronically using a 4-parameter logistic fit based on the Levenberg-Marquardt algorithm to generate IC50 values.

Sequence of human A2a adenosine receptor (P29274 whole entry): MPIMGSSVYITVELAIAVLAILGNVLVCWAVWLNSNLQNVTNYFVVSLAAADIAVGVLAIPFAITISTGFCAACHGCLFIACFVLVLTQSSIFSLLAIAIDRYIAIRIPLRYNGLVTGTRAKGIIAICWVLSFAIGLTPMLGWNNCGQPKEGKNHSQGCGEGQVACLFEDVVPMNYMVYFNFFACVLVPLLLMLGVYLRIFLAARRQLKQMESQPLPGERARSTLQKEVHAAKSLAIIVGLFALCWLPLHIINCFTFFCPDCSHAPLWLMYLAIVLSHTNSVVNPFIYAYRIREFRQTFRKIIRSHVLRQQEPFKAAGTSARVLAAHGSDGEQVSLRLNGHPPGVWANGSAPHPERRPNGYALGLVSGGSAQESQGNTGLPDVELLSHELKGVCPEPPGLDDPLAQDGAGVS
Sequence of human A2b adenosine receptor (P29275 whole entry): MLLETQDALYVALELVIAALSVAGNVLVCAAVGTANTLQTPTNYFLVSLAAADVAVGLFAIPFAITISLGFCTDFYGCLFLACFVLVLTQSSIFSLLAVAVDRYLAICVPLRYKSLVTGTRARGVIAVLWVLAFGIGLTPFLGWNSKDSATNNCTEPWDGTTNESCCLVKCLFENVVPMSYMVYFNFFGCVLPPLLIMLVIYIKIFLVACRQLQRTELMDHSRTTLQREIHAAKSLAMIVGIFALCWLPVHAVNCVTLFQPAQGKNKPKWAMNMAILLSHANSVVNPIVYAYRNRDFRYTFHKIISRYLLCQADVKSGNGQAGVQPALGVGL

Turning to `COc1cccc2c1nc(N)n1nc([C@@H]3CCCN(c4cnn(C5CCCC5(C)O)c4)C3)nc21` (single isomer, unassigned) [Example 59A], the results for the IC50 in assay [1] and in assay [2] were 0.4 nM and 6.3 nM, respectively.
On the same counts, the results for `COc1cccc2c1nc(N)n1nc([C@@H]3CCCN(c4ccc(=O)n(C(C)C)c4)C3)nc21` [Example 96, (R)-5-(3-(5-amino-7-methoxy-[1,2,4]triazolo[1,5-c]quinazolin-2-yl)piperidin-1-yl)-1-isopropylpyridin-2(1H)-one] are 0.6 nM and 291 nM.
Regarding `COc1ccc2c(c1)nc(N)n1nc([C@H]3CC[C@@H](C)N(c4cnn([C@H](C)C(C)(C)O)c4)C3)nc21` [Example 212B, (R)--3-(4-((2R,5S)-5-(5-amino-8-methoxy-[1,2,4]triazolo[1,5-c]quinazolin-2-yl)-2-methylpiperidin-1-yl)-1H-pyrazol-1-yl)-2-methylbutan-2-ol], the results for the IC50 in assay [1] and in assay [2] were 234 nM and 8280 nM, respectively.
As for `Cc1ccc2c(c1)nc(N)n1nc([C@@H]3CC[C@H](C)N(c4cnn(CC(C)(C)O)c4)C3)nc21` (single isomer, unassigned) [Example 206, 1-(4-((2S, 5R or 2R,5S)-5-5-amino-8-methyl-[1,2,4]triazolo[1,5-c]quinazolin-2-yl)-2-methylpiperidin-1-yl)-1H-pyrazol-1-yl)-2-methylpropan-2-ol], the IC50 in assay [1] is 0.3 nM; in assay [2] it was 20.7 nM.
On the same counts, the results for `COc1ccc2c(c1)nc(N)n1nc([C@@H]3CCCN(c4ccc(OC(C)C)nc4)C3)nc21` [Example 192, (R)-2-(1-(6-isopropoxypyridin-3-yl)piperidin-3-yl)-8-methoxy-[1,2,4]triazolo[1,5-c]quinazolin-5-amine] are 2.5 nM and 22.7 nM.
Turning to `COc1cccc2c1nc(N)n1nc([C@@H]3CCCN(c4cnn(C5CCOCC5)c4C)C3)nc21` [Example 47, (R)-7-methoxy-2-(1-(5-methyl-1-(tetrahydro-2H-pyran-4-yl)-1H-pyrazol-4-yl)piperidin-3-yl)-[1,2,4]triazolo[1,5-c]quinazolin-5-amine], the IC50 in assay [1] was found to be 0.1 nM; in assay [2], 223 nM.
The like results for `COc1cccc2c1nc(N)n1nc([C@@H]3CCCN(c4cnc(C)cn4)C3)nc21` [Example 106, (R)-7-methoxy-2-(1-(5-methylpyrazin-2-yl)piperidin-3-yl)-[1,2,4]triazolo[1,5-c]quinazolin-5-amine] were, in that order, 0.1 nM and 245 nM.
For the compound `COc1cccc2c1nc(N)n1nc([C@@H]3CCCN(c4ncn(CC(F)(F)F)n4)C3)nc21` [Example 69, (R)-7-methoxy-2-(1-(1-(2,2,2-trifluoroethyl)-1H-1,2,4-triazol-3-yl)piperidin-3-yl)-[1,2,4]triazolo[1,5-c]quinazolin-5-amine], the IC50 turned out to be 0.6 nM in assay [1] and 144 nM in assay [2].
The like results for `COc1ccc2c(c1)nc(N)n1nc([C@@H]3CCCN(c4cnn([C@H](C)C(C)(C)O)c4C)C3)nc21` [Example 189A, (R)-3-(4-((R)-3-(5-amino-8-methoxy[1,2,4]triazolo[1,5-c]quinazolin-2-yl)piperidin-1-yl)-5-methyl-1H-pyrazol-1-yl)-2-methylbutan-2-ol] were, in that order, 0.6 nM and 228 nM.
For the compound `Cn1cc(N2CCCC(c3nc4c5c(F)ccc(F)c5nc(N)n4n3)C2)cn1` (single isomer, unassigned) [Example 172, (R or S)-7,10-difluoro-2-(1-(1-methyl-1H-pyrazol-4-yl)piperidin-3-yl)-[1,2,4]triazolo[1,5-c]quinazolin-5-amine], the IC50 in assay [1] is 34.2 nM; in assay [2], 375 nM.
Take `COc1ccc2c(c1)nc(N)n1nc([C@@H]3CCCN(c4cnn([C@@H]5CCC[C@H]5O)c4)C3)nc21` [Example 187A, (1R,2R)-2-(4-((R)-3-(5-amino-8-methoxy-[1,2,4]triazolo[1,5-c]quinazolin-2-yl)piperidin-1-yl)-1H-pyrazol-1-yl)cyclopentan-1-ol]: the half-maximal inhibitory concentration (IC50) in assay [1] turned out to be 2.8 nM; in assay [2] it was 1290 nM.
For the compound `COc1cccc2c1nc(N)n1nc(C3CCCC(c4cnn(CC(C)(C)O)c4)C3)nc21` (single isomer, unassigned) [Example 138], the IC50 in assay [1] amounted to 3.4 nM; in assay [2] it was 425 nM.
`COc1ccc2c(c1)nc(N)n1nc([C@@H]3CCCN(c4cnn([C@H]5C[C@@](C)(O)C5)c4)C3)nc21` [Example 182, (1S,3s)-3-(4-((R)-3-(5-amino-8-methoxy-[1,2,4]-triazolo[1,5-c]quinazolin-2-yl)piperidin-1-yl)-1H-pyrazol-1-yl)-1-methylcyclobutan-1-ol]: the IC50 in assay [1] came out at 1.3 nM; in assay [2], 188 nM.
The compound `COc1ccc2c(c1)nc(N)n1nc([C@H]3C[C@@H](F)CN(c4cn(CC(C)(C)O)nc4C)C3)nc21` [Example 197A, 1-(4-((3S,5R)-3-(5-amino-8-methoxy-[1,2,4]triazolo[1,5-c]quinazolin-2-yl)-5-fluoropiperidin-1-yl)-3-methyl-1H-pyrazol-1-yl)-2-methylpropan-2-ol] returned an IC50 in assay [1] of 99 nM. The “A2B binding % inh. @ 10000 nM” value in assay [2] (@ 10000 nM, unstarred) was 31% inh. @ 10000 nM.
With `COc1cccc2c1nc(N)n1nc([C@@H]3CCCN(c4cnn(C5CCOCC5)c4)C3)nc21` [Example 21, (R)-7-methoxy-2-(1-(1-(tetrahydro-2H-pyran-4-yl)-1H-pyrazol-4-yl)piperidin-3-yl)-[1,2,4]triazolo[1,5-c]quinazolin-5-amine], the IC50 came to 0.6 nM in assay [1] and 111 nM in assay [2].
With `COc1cccc2c1nc(N)n1nc([C@@H]3CCCN(c4ccn(C)n4)C3)nc21` [Example 66, (R)-7-methoxy-2-(1-(1-methyl-1H-pyrazol-3-yl)piperidin-3-yl)-[1,2,4]triazolo[1,5-c]quinazolin-5-amine], the IC50 was 0.7 nM in assay [1] and 144 nM in assay [2].
The like results for `CCc1ccc2c(c1)nc(N)n1nc([C@@H]3CC[C@H](C)N(c4cnn(CC(C)(C)O)c4)C3)nc21` [Example 207, 1-(4-((2S,5R)-5-(5-amino-8-ethyl-[1,2,4]triazolo[1,5-c]quinazolin-2-yl)-2-methylpiperidin-1-yl)-1H-pyrazol-1-yl)-2-methylpropan-2-ol] were, in that order, 2.8 nM and 125 nM.
Take `Cn1cc(N2CCCC(c3nc4c5ccc(F)cc5nc(N)n4n3)C2)cn1` (single isomer, unassigned) [Example 168, (R or S)-8-fluoro-2-(1-(1-methyl-1H-pyrazol-4-yl)piperidin-3-yl)-[1,2,4]triazolo[1,5-c]quinazolin-5-amine]: the IC50 in assay [1] worked out at 17.4 nM; in assay [2], 150 nM.
On the same counts, the results for `COc1cccc2c1nc(N)n1nc([C@@H]3CCCN(c4cn(CC5(O)CCC5)nc4C)C3)nc21` [Example 32, (R)-1-((4-(3-(5-amino-7-methoxy-[1,2,4]triazolo[1,5-c]quinazolin-2-yl)piperidin-1-yl)-3-methyl-1H-pyrazol-1-yl)methyl)cyclobutan-1-ol] are 1.1 nM and 0.7 nM.
With `COc1cccc2c1nc(N)n1nc(C3CCCCN(c4cn(C)nn4)C3)nc21` (stereo not drawn) [Example 175], the IC50 was 0.1 nM in assay [1] and 23.2 nM in assay [2].
As to `COc1cccc2c1nc(N)n1nc([C@H]3CCO[C@@H](c4cnn(C)c4)C3)nc21` [Example 139A], the figures for the IC50 in assay [1] and in assay [2] were 167 nM and 2460 nM, respectively.
